Source: paper PMC8007111, “Novel Potent Muscarinic Receptor Antagonists: Investigation on the Nature of Lipophilic Substituents in the 5- and/or 6-Positions of the 1,4-Dioxane Nucleus” (Journal of Medicinal Chemistry, 2020)

Legend:
[1] = target: T1, hM3 mAChR (Homo sapiens, UniProt P20309); test: [3H]NMS inhibition radioligand binding, hM3 in CHO-K1 cell membranes; conditions: for pKi hM3 / Ki: [3H]NMS, CHO-K1 cell membranes, mean ± S.E.M.; for Ki: read-out: pKi hM3 (converted)
T1 construct: expressed in transfected cells; host or cells: CHO-K1 (membrane preparation)
Protocol: (§1) CHO-K1 cells stably transfected with the human muscarinic receptor subtypes (hM1–5) were grown in Dulbecco’s modified Eagle’s medium (DMEM) with nutrient mixture F12 (DMEM/F12, 50/50), containing 10% fetal bovine serum, penicillin (100 U/mL), streptomycin (100 U/mL), L-glutamine (4 mM), and geneticin (G-418, 50 μg/mL) at 37 °C in a 5% CO2 humidified incubator. […] Serum (0.7 mL) was added to inactivate the trypsin, and the cells were spun down by centrifuging at 300g for 5 min. The cells were then resuspended in ice-cold 25 mM sodium phosphate buffer containing 5 mM MgCl2, pH 7.4 (binding buffer) and homogenized using a cell disrupter (Ultra-Turrax, setting 3, 30 s). The homogenate was sedimented by centrifugation (17,000g, 15 min). The supernatant was discarded, and the resulting membrane pellets were resuspended with Ultra-Turrax in the same buffer to give a final protein concentration of 1–2 mg/mL. The protein content was determined by the method of Bradford (1976) with bovine serum albumin (Sigma) as a standard and stored at −80 °C.
(§2) Inhibition radioligand binding assays were conducted as previously described[48],[49] with 0.2 nM [^3H]NMS in binding buffer in a final volume of 250 μL. Nonspecific binding was defined in the presence of 10 μM atropine. Briefly, membrane fractions (about 25–70 μg/mL of protein) were incubated with radioligand and unlabeled test compounds for 2 h at r.t. Bound and free radioactivity were separated by filtering the assay mixture through UniFilter GF/B plates using a FilterMate Cell Harvester (PerkinElmer Life and Analytical Science). The filter bound radioactivity was counted by a TopCount NXT Microplate Scintillation Counter (PerkinElmer Life and Analytical Science). Data (cpm) were normalized to percentage-specific binding and analyzed using a four-parameter logistic equation in GraphPad Prism 5.02; IC50 values were determined, and Ki values were calculated.[59]

[2] = target: T2, hM2 mAChR (Homo sapiens, UniProt P08172); test: [3H]NMS inhibition radioligand binding, hM2 in CHO-K1 cell membranes; conditions: for pKi hM2 / Ki: [3H]NMS, CHO-K1 cell membranes, mean ± S.E.M.; for Ki: read-out: pKi hM2 (converted)
T2 construct: expressed in transfected cells; host or cells: CHO-K1 (membrane preparation)
T2 sequence (P08172 1-466): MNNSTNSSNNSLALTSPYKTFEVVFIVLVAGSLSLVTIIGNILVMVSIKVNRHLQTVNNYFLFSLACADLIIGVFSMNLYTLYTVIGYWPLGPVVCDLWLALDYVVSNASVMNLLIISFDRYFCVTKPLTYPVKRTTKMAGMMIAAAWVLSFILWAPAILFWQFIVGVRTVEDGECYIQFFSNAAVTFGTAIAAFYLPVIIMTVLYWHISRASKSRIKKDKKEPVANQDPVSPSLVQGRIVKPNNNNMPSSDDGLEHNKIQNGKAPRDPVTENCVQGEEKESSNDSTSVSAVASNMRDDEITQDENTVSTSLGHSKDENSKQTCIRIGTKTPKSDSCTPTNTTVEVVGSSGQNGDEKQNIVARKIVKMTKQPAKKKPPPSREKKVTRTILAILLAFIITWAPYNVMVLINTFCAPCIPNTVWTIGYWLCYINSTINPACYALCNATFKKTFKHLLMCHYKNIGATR
Protocol: as §1, §2

[3] = target: T3, hM5 mAChR (Homo sapiens, UniProt P08912); test: [3H]NMS inhibition radioligand binding, hM5 in CHO-K1 cell membranes; conditions: [3H]NMS, CHO-K1 cell membranes, mean ± S.E.M.; for Ki: read-out: pKi hM5 (converted)
T3 construct: expressed in transfected cells; host or cells: CHO-K1 (membrane preparation)
T3 sequence (P08912 1-532): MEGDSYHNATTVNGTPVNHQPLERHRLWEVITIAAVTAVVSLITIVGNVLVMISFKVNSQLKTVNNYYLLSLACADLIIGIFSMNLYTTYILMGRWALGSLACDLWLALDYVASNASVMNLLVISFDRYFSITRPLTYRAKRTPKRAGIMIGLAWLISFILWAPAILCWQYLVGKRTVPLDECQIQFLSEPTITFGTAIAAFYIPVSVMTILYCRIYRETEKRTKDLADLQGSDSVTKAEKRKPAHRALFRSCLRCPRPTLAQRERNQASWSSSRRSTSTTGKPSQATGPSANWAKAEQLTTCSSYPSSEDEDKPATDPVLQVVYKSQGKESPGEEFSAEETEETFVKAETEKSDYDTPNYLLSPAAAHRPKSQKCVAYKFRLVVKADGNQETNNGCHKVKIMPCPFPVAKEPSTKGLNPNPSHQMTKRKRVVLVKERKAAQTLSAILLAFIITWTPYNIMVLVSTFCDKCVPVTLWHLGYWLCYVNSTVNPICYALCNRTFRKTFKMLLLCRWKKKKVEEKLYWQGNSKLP
Protocol: as §1, §2

[4] = target: T4, hM1 mAChR (Homo sapiens, UniProt P11229); test: [3H]NMS inhibition radioligand binding, hM1 in CHO-K1 cell membranes; conditions: for pKi hM1 / Ki: [3H]NMS, CHO-K1 cell membranes, mean ± S.E.M.; for Ki: read-out: pKi hM1 (converted)
T4 construct: expressed in transfected cells; host or cells: CHO-K1 (membrane preparation)
T4 sequence (P11229 1-460): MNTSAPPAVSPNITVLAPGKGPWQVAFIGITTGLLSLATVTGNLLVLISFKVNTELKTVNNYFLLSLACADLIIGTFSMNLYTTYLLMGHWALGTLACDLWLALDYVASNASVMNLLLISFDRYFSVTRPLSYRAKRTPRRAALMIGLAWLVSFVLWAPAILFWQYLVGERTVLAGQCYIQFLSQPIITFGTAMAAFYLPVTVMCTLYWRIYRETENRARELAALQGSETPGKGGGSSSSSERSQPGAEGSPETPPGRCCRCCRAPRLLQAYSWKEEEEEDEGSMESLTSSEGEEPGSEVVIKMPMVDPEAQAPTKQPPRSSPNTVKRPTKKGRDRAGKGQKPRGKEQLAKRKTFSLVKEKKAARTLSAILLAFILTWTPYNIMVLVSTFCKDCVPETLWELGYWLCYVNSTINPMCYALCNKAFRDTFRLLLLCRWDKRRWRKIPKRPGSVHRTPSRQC
Protocol: as §1, §2

[5] = target: T5, hM4 mAChR (Homo sapiens, UniProt P08173); test: [3H]NMS inhibition radioligand binding, hM4 in CHO-K1 cell membranes; conditions: for pKi hM4 / Ki: [3H]NMS, CHO-K1 cell membranes, mean ± S.E.M.; for Ki: read-out: pKi hM4 (converted)
T5 construct: expressed in transfected cells; host or cells: CHO-K1 (membrane preparation)
T5 sequence (P08173 1-479): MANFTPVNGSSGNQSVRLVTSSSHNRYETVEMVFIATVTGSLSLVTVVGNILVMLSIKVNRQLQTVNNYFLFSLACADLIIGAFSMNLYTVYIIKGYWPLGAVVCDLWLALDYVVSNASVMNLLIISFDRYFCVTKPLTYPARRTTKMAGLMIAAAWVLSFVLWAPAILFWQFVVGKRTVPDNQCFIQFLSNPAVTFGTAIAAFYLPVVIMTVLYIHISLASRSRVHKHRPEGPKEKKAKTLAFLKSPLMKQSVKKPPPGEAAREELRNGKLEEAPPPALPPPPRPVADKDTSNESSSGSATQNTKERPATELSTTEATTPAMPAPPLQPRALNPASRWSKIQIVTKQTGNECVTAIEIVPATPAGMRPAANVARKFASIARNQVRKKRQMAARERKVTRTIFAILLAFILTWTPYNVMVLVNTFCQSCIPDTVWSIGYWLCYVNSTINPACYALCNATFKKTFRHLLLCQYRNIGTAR
Protocol: as §1, §2

T1 sequence (P20309 whole entry): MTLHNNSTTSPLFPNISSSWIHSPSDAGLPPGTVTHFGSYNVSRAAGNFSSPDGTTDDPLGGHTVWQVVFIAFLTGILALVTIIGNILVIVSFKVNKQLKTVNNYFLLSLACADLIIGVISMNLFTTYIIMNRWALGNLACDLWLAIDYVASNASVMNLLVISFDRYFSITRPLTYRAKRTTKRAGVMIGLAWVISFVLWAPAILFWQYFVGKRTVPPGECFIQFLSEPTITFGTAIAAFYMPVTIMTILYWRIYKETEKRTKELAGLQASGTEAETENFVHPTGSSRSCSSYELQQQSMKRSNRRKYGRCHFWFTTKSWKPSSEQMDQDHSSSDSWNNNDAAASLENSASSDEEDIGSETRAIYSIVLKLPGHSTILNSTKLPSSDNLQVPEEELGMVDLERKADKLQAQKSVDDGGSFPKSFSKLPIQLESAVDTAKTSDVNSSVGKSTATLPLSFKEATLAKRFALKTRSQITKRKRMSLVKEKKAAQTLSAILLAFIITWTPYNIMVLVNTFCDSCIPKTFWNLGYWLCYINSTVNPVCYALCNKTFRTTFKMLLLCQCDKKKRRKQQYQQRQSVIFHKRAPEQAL

Row | Structure (SMILES) | pKi hM3 [1] | pKi hM2 [2] | pKi hM5 [3] | pKi hM1 [4] | pKi hM4 [5] | ER (eudismic ratio) hM3 ([1]; eutomer vs distomer) | ER (eudismic ratio) hM2 ([2]; eutomer vs distomer) | ER (eudismic ratio) hM1 ([4]; eutomer vs distomer) | ER (eudismic ratio) hM4 ([5]; eutomer vs distomer) | Ki [1] [µM] | Ki [2] [µM] | Ki [3] [µM] | Ki [4] [µM] | Ki [5] [µM]
1 | C[N+](C)(C)C[C@@H]1CO[C@H](c2ccc(S(=O)(=O)c3ccccc3)cc2)CO1.[I-] (relative stereo) [17a, 1-((2R*,5R*)-5-(4-(Phenylsulfonyl)phenyl)-1,4-dioxan-2-yl)-N,N,N-trimethylmethanaminium Iodide] | 5.14 ± 0.10 | 6.39 ± 0.04 | 5.05 ± 0.08 | <5 | <5 | – | – | – | – | – | – | – | – | –
2 | C[N+](C)(C)C[C@@H]1CO[C@@H](C(c2ccccc2)c2ccccc2)CO1.[I-] (relative stereo) [12b, 1-((2R*,5S*)-5-Benzhydryl-1,4-dioxan-2-yl)-N,N,N-trimethylmethanaminium Iodide] | 5.62 ± 0.11 | 6.06 ± 0.08 | 5.20 ± 0.01 | 6.08 ± 0.07 | 5.52 ± 0.06 | – | – | – | – | – | – | – | – | –
3 | C[N+](C)(C)C[C@H]1COC[C@@](c2ccccc2)(C2CCCCC2)O1.[I-] [(2S,6S)-(−)-3b, 1-((2S,6S)-6-Cyclohexyl-6-phenyl-1,4-dioxan-2-yl)-N,N,N-trimethylmethanaminium Iodide] | 9.05 ± 0.10 | 8.22 ± 0.10 | 9.18 ± 0.18 | 9.52 ± 0.19 | 9.17 ± 0.19 | 35 | 2 | 17 | 52 | – | – | – | – | –
4 | C[N+](C)(C)CC1COCC(c2ccc(Cc3ccccc3)cc2)O1 (mixture of isomers) [5a/b, 1-((2R*,6S*)-6-(4-Benzylphenyl)-1,4-dioxan-2-yl)-N,N,N-trimethylmethanaminium Iodide and 1-((2R*,6R*)-6-(4-Benzylphenyl)-1,4-dioxan-2-yl)-N,N,N-trimethylmethanaminium Iodide] | – | – | – | – | – | – | – | – | – | > 10 | 4.9 | 7.41 | > 10 | > 10
5 | C[N+](C)(C)C[C@@H]1COC(c2ccccc2)C(c2ccccc2)(c2ccccc2)O1 (stereo in doubt) [19b, 1-((2R*,5R*)-5,6,6-Triphenyl-1,4-dioxan-2-yl)-N,N,N-trimethylmethanaminium Iodide] | – | – | – | – | – | – | – | – | – | 1.1 | 2.14 | 1.45 | 0.55 | 1.17
6 | C[N+](C)(C)C[C@@H]1CO[C@](c2ccccc2)(C2CCCCC2)CO1.[I-] (relative stereo) [11b, 1-((2R*,5S*)-5-Cyclohexyl-5-phenyl-1,4-dioxan-2-yl)-N,N,N-trimethylmethanaminium Iodide] | 7.36 ± 0.10 | 7.22 ± 0.11 | 7.32 ± 0.09 | 7.81 ± 0.04 | 7.23 ± 0.10 | – | – | – | – | – | – | – | – | –
7 | C[N+](C)(C)C[C@@H]1COC[C@@H](c2ccc(S(=O)(=O)c3ccccc3)cc2)O1.[I-] (relative stereo) [8b, 1-((2R*,6R*)-6-(4-(Phenylsulfonyl)phenyl)-1,4-dioxan-2-yl)-N,N,N-trimethylmethanaminium Iodide] | 5.63 ± 0.14 | 6.70 ± 0.01 | 5.80 ± 0.06 | 5.29 ± 0.07 | 5.20 ± 0.07 | – | – | – | – | – | – | – | – | –
8 | C[N+](C)(C)C[C@@H]1CO[C@H](c2ccc(Sc3ccccc3)cc2)CO1.[I-] (relative stereo) [15a, 1-((2R*,5R*)-5-(4-(Phenylthio)phenyl)-1,4-dioxan-2-yl)-N,N,N-trimethylmethanaminium Iodide] | 6.01 ± 0.11 | 6.70 ± 0.13 | 6.00 ± 0.14 | 5.43 ± 0.09 | 5.70 ± 0.01 | – | – | – | – | – | – | – | – | –
9 | C[N+](C)(C)C[C@@H]1CO[C@@](c2ccccc2)(C2CCCCC2)CO1.[I-] (relative stereo) [11a, 1-((2R*,5R*)-5-Cyclohexyl-5-phenyl-1,4-dioxan-2-yl)-N,N,N-trimethylmethanaminium Iodide] | 7.43 ± 0.09 | 7.26 ± 0.08 | 7.45 ± 0.08 | 8.01 ± 0.06 | 7.15 ± 0.09 | – | – | – | – | – | – | – | – | –
10 | C[N+](C)(C)C[C@@H]1CO[C@H](c2ccc([S+]([O-])c3ccccc3)cc2)CO1.[I-] (relative stereo) [16a, 1-((2R*,5R*)-5-(4-(Phenylsulfinyl)phenyl)-1,4-dioxan-2-yl)-N,N,N-trimethylmethanaminium Iodide] | <5 | 5.52 ± 0.02 | 5.21 ± 0.08 | <5 | <5 | – | – | – | – | – | – | – | – | –
11 | C[N+](C)(C)C[C@@H]1CO[C@H](c2ccccc2)[C@@H](c2ccccc2)O1.[I-] (relative stereo) [18b, 1-((2R*,5R*,6R*)-5,6-Diphenyl-1,4-dioxan-2-yl)-N,N,N-trimethylmethanaminium Iodide] | 5.81 ± 0.10 | 5.65 ± 0.09 | 5.52 ± 0.08 | 6.30 ± 0.09 | 5.40 ± 0.09 | – | – | – | – | – | – | – | – | –
12 | C[N+](C)(C)C[C@@H]1COC[C@H](c2ccc(Sc3ccccc3)cc2)O1.[I-] (relative stereo) [6a, 1-((2R*,6S*)-6-(4-(Phenylthio)phenyl)-1,4-dioxan-2-yl)-N,N,N-trimethylmethanaminium Iodide] | <5 | 5.47 ± 0.07 | 5.58 ± 0.13 | 5.50 ± 0.05 | 5.43 ± 0.05 | – | – | – | – | – | – | – | – | –
